Data: patent publication US6960573B2, “Vitamin D3 derivative and treating agent for inflammatory respiratory disease using same” (Teijin Limited, priority 1998, dated 2005)

System: hamster LPS-induced pneumonia model
Assay: Neutrophilic infiltration suppressing effect, hamster LPS-induced pneumonia model
Type: in vivo, golden hamster
Settings: Mesocricetus auratus, Neutrophil, inhaled or nasal; dose 4 μg/kg, administered infratracheally just after LPS inhalation; neutrophils in washing after 24 hr; read-out: % Suppression (number of neutrophils, based on the control)
Procedure: A male golden hamster was placed in an inhalation chamber (volume: 12 liter) and allowed to inhale LPS (nebulizer filled concentration: 2.0 mg/ml) generated by an ultrasonic nebulizer for 30 min to cause pneumonia. Just after the inhalation of the LPS, a treating agent of the present invention was administered infratracheally at a dosage of 1 to 20 μg/kg under halothane anesthesia. After 24 hr, tracheal branches and pulmonary alveoli were washed, and the number of neutrophils in the washing was determined. Using the number of neutrophils obtained in the absence of the treating agent of the present invention as the control, the decreasing rates of the numbers of neutrophils were expressed in terms of percent suppression based on the control.
In the case of `C=C1/C(=C\C=C2/CCC[C@@]3(C)C2CC[C@@H]3[C@H](C)C[C@H]2C=C(C)C(=O)O2)C[C@@H](O)C[C@@H]1O` (some centres unmarked) [Compound No. 1107b], the inhibition in vivo at 0.004 mg/kg is reported as < 20%. For `C=C1/C(=C\C=C2/CCC[C@@]3(C)C2CC[C@@H]3[C@H](C)CC2CC3(CC3)C(=O)O2)C[C@@H](O)C[C@@H]1O` (some centres unmarked) [2105a], the inhibition in vivo at 0.004 mg/kg was > 40%. With `C=C1/C(=C\C=C2/CCC[C@@]3(C)C2CC[C@@H]3[C@H](C)/C=C2\CCC(C)(F)C2=O)C[C@@H](O)C[C@@H]1O` (some centres unmarked) [3105d] the inhibition in vivo at 0.004 mg/kg was > 40%. For `C=C1/C(=C\C=C2/CCC[C@@]3(C)C2CC[C@@H]3C(C)/C=C2\CCC(=O)C2(C)O)C[C@@H](O)C[C@@H]1O` (some centres unmarked) [4203b], the inhibition in vivo at 0.004 mg/kg was 20 to 40%. In the case of `C=C1/C(=C\C=C2/CCC[C@@]3(C)C2CC[C@@H]3[C@H](C)CC2CCC(=O)C2)C[C@@H](O)C[C@@H]1O` (some centres unmarked) [4101a], the inhibition in vivo at 0.004 mg/kg is reported as 20 to 40%. In the case of `C=C1/C(=C\C=C2/CCC[C@@]3(C)C2CC[C@@H]3[C@H](C)CC2CC(C)(C)C(=O)O2)C[C@@H](O)C[C@@H]1O` (some centres unmarked) [2102a], the inhibition in vivo at 0.004 mg/kg is reported as > 40%. In the case of `C=C1/C(=C\C=C2/CCC[C@@]3(C)C2CC[C@@H]3[C@H](C)/C=C2\CCN(C)C2=O)C[C@@H](O)C[C@@H]1O` (some centres unmarked) [Compound No. 3405], the inhibition in vivo at 0.004 mg/kg is reported as > 40%.

Same assay, conditions: Mesocricetus auratus, Neutrophil, inhaled or nasal; dose 20 μg/kg, administered infratracheally just after LPS inhalation; neutrophils in washing after 24 hr; read-out: % Suppression (number of neutrophils, based on the control)
Compound `C=C1/C(=C\C=C2/CCC[C@@]3(C)C2CC[C@@H]3[C@H](C)CCC[C@@](C)(O)C(=O)N2CCCCC2)C[C@@H](O)C[C@@H]1O` (some centres unmarked) [Compound No. 5106] has an inhibition in vivo at 0.02 mg/kg of 20 to 40%. For `C=C1/C(=C\C=C2/CCC[C@@]3(C)C2CC[C@@H]3[C@H](C)CCC[C@@](C)(O)C(C)=O)C[C@@H](O)C[C@@H]1O` (some centres unmarked) [Compound No. 5107], the inhibition in vivo at 0.02 mg/kg was > 40%. In the case of `C=C1/C(=C\C=C2/CCC[C@@]3(C)C2CC[C@@H]3[C@H](C)CC2=CC(=O)CC2)C[C@@H](O)C[C@@H]1O` (some centres unmarked) [Compound No. 4301], the inhibition in vivo at 0.02 mg/kg is reported as < 20%. `C=C1/C(=C\C=C2/CCC[C@@]3(C)C2CC[C@@H]3[C@H](C)CCC[C@@](C)(O)C(C)(C)O)C[C@@H](O)C[C@@H]1O` (some centres unmarked) [compound 5109] gave an inhibition in vivo at 0.02 mg/kg of 20 to 40%. With `C=C1/C(=C\C=C2/CCC[C@@]3(C)C2CC[C@@H]3[C@H](C)CCC[C@@](C)(O)C(=O)N(C)C)C[C@@H](O)C[C@@H]1O` (some centres unmarked) [Compound No. 5102] the inhibition in vivo at 0.02 mg/kg was > 40%.

System: not listed separately
Assay: Blood calcium level-elevation effect, oral administration to rats
Type: in vivo
Settings: ratio to 1α,25-dihydroxyvitamin D3
Text: For example, the blood calcium level-elevation effects of compounds of the present invention in oral administration to rats, which are compared with that of 1 α,25-dihydroxyvitamin D3, are as shown below: • Compound No. 3105c, 1/>100 • Compound No.3405, 1/>100 • Compound No. 5102, 1/259 • Compound No. 5107, 1/11.
With `C=C1/C(=C\C=C2/CCC[C@@]3(C)C2CC[C@@H]3[C@H](C)CCC[C@@](C)(O)C(C)=O)C[C@@H](O)C[C@@H]1O` (some centres unmarked) [Compound No. 5107] the “blood calcium level-elevation effect compared with that of 1α,25-dihydroxyvitamin D3” value was 1/11. With `C=C1/C(=C\C=C2/CCC[C@@]3(C)C2CC[C@@H]3[C@H](C)CCC[C@@](C)(O)C(=O)N(C)C)C[C@@H](O)C[C@@H]1O` (some centres unmarked) [Compound No. 5102] the “blood calcium level-elevation effect compared with that of 1α,25-dihydroxyvitamin D3” value was 1/259.
